In patent publication US7557132B2, “Compounds useful as pesticides” (Dow AgroSciences LLC, priority 2002, dated 2009):

melting point: 93 to 95 °C
SMILES: CC(/C(=C/[N+](=O)[O-])Nc1ccccc1)c1ccc(Cl)nc1 (stereo not shown) [Compound 45, N-{(Z)-1-[1-(6-chloro-3-pyridinyl)ethyl]-2-nitroethenyl}aniline]
